Data: patent US10967035B1, “Aquaculture feed additive” (HP Ingredients Corp., priority 2020, dated 2021)

What was measured:
[1] = test system: Piscirickettsia salmonis strain type LF-89; type: cell-based
[2] = test system: CD8+; assay: RT-qPCR of CD8+ expression in anterior kidney of fish fed supplemented diets; type: in vivo, rainbow trout; settings: diet 15 days
Procedure: (§1) We compared several aquaculture diets suitable for use in commercial aquaculture. The standard diet was […] commercially available from Salmones […]., Los Angeles, Chile. […] Each diet was administered to each of three (3) cages for 15 days. […] We extracted total RNA from each sample, and then quantified the expression of IL-12 and CD8^+ using real-time quantitative PCR, according to the standardized protocols of the Aquatic Organisms Biotechnology Lab of the Universidad Austral de Chile.

[3] = test system: IL-12; assay: RT-qPCR of IL-12 expression in anterior kidney of fish fed supplemented diets; type: in vivo, rainbow trout; settings: diet 15 days; NC 0.5 kg/ton, AP 1 kg/ton of feed
Procedure: as §1

SMILES	inhibitory effect on bacterial growth ([1]; at the analyzed concentrations (0.98 to 500))	CD8+ expression in anterior kidney compared to control group ([2]; NC 0.5 kg/ton, AP 1 kg/ton of feed)	stimulation of the immune activity markers compared to control ([2]; in vivo pilot test)	IL-12 expression in anterior kidney compared to control group [3]	mean inhibition in bacterial growth ([1]; 64, 32 and 16 μg/mL) [fold]
C=C1CC[C@@H]2[C@](C)(CO)[C@H](O)CC[C@@]2(C)[C@@H]1C/C=C1/C(=O)OC[C@H]1O [AP, andrographolide]	no significant differences in the inhibitory effect	increase the expression of CD8+	2.0	depress the expression of IL-12	–
CS(=O)(=O)c1ccc([C@@H](O)[C@@H](CF)NC(=O)C(Cl)Cl)cc1 [florfenicol]	–	–	–	–	5
